Patent EP4725957A1, “GROUP OF CYCLIC ALKALINE LIPOPEPTIDE COMPOUNDS, AND PREPARATION METHOD THEREFOR AND USE THEREOF” (Institute of Medicinal Biotechnology, Chinese Academy of …, priority 2023, dated 2024)
In brackets after ≈: the same amount, converted by molar mass. Read-outs that look alike come from different tables or passages of the source. Bridge positions count the residues as written; N and C are the ends. Square brackets hold non-standard residues; d marks the D form. Peptide text beside a SMILES is read from it. * marks the point of attachment. Heptanoyl(6-Me) = CC(C)CCCCC(=O)*; Nonanoyl = CCCCCCCCC(=O)*; X1 = CC[C@H](C)CCCCC(=O)*; Heptanoyl = CCCCCCC(=O)*; Octanoyl = CCCCCCCC(=O)*; Orn = NCCC[C@H](N)C(=O)O; Dab = NCC[C@H](N)C(=O)O; Dap = NC[C@H](N)C(=O)O

Columns and labels:
Type in all cases: cell-based
[1] = Nephrotoxicity assay: in vitro cytotoxicity of HK-2 cells by CCK-8 assay; conditions: human, HK-2 cells (human renal), 72 h incubation with drug-containing medium
Method in brief: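 HK-2 human renal cells in RPMI-1640 with 10% FBS were exposed to compounds at final 12.5–500 µg/mL for 72 h, then CCK-8 for 3 h and OD450 read. Viability was normalised to drug-free wells; IC50 came from logarithmic regression over three repeats, with polymyxin B as positive drug.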

[2] = test system: Klebsiella pneumoniae KPN+19-15
Method in brief: (§1)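 Colonies from 18-24 h plates were suspended to 0.5 McFarland and diluted in MH broth. Two-fold compound dilutions were then mixed 1:1 with inoculum to reach 64 to 0.03 mg/L and (2-4) × 10^5 CFU/mL. Plates were sealed and incubated at 35-37°C for 16-20 h, after which the MIC was read.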

[3] = test system: Pseudomonas aeruginosa ATCC 27853
Method in brief: as §1

[4] = test system: Klebsiella pneumoniae ATCC BAA-1705 (KPC)
Method in brief: as §1

[5] = test system: Escherichia coli ATCC BAA-2523
Method in brief: as §1

[6] = test system: Acinetobacter baumannii ABA19-1
Method in brief: as §1

[7] = test system: Pseudomonas aeruginosa PAE19-3
Method in brief: as §1

[8] = test system: Acinetobacter baumannii NCTC 13304 (OXA-27)
Method in brief: as §1

[9] = test system: Escherichia coli ATCC BAA-2340 (KPC)
Method in brief: as §1

| Compound | IC50 at 72 h [1] [µg/mL] | MIC ([2]; KPN+19-15) [µg/mL] | MIC ([3]; ATCC 27853) [µg/mL] | MIC ([4]; ATCC BAA-1705) [µg/mL] | MIC ([5]; ATCC BAA-2523) [µg/mL] | MIC ([6]; ABA19-1) [µg/mL] | MIC ([7]; PAE19-3) [µg/mL] | MIC ([8]; NCTC 13304) [µg/mL] | MIC ([9]; ATCC BAA-2340) [µg/mL] | MIC ([2]; Klebsiella pneumoniae KPN 19-15) [µg/mL] | MIC ([3]; Pseudomonas aeruginosa ATCC27853) [µg/mL] | MIC ([4]; Klebsiella pneumoniae ATCC BAA-1705 (KPC)) [µg/mL] | MIC ([5]; Escherichia coli ATCC BAA-2523) [µg/mL] | MIC ([6]; Acinetobacter baumannii ABA19-1) [µg/mL] | MIC ([7]; Pseudomonas aeruginosa PAE19-3) [µg/mL] | MIC ([8]; Acinetobacter baumannii NCTC 13304 (OXA-27)) [µg/mL] | MIC ([9]; Escherichia coli ATCC BAA-2340 (KPC)) [µg/mL] |
| --- | --- | --- | --- | --- | --- | --- | --- | --- | --- | --- | --- | --- | --- | --- | --- | --- | --- |
| CCCCCCCCC(=O)N[C@@H](CCCN)C(=O)N[C@H](C(=O)N[C@H](CO)C(=O)N[C@H]1CCNC(=O)[C@H]([C@@H](C)O)NC(=O)[C@H](CCN)NC(=O)[C@H](CCN)NC(=O)[C@H]([C@@H](C)O)NC(=O)[C@@H](Cc2ccccc2)NC(=O)[C@H](CCN)NC1=O)[C@@H](C)O [Compound 60, Nonanoyl-Orn-Thr-D-Ser-ring(4-10)[Dab-Dab-D-Phe-Thr-Dab-Dab-Thr]] (Nonanoyl-[Orn]T[dS][Dab][Dab][dF]T[Dab][Dab]T; lactam 4-C) | 281 ± 9.5 (≈ 235 µM) | 0.5 (≈ 0.419 µM) | 64 (≈ 53.7 µM) | 0.25 (≈ 0.21 µM) | 0.25 (≈ 0.21 µM) | 0.25 (≈ 0.21 µM) | 8 (≈ 6.71 µM) | 0.25 (≈ 0.21 µM) | 0.25 (≈ 0.21 µM) |  |  |  |  |  |  |  |  |
| CC[C@H](C)CCCCC(=O)N[C@@H](CCN)C(=O)N[C@H](C(=O)N[C@H](CO)C(=O)N[C@H]1CCNC(=O)[C@H]([C@@H](C)O)NC(=O)[C@H](CCN)NC(=O)[C@H](CCN)NC(=O)[C@H]([C@@H](C)O)NC(=O)[C@@H](Cc2ccccc2)NC(=O)[C@H](CN)NC1=O)[C@@H](C)O [Compound 61, (S)-6-methyloctanoyl-Dab-Thr-D-Ser-ring(4-10)[Dab-Dap-D-Phe-Thr-Dab-Dab-Thr]] (X1-[Dab]T[dS][Dab][Dap][dF]T[Dab][Dab]T; lactam 4-C) | > 500 |  |  |  |  |  |  |  |  | 0.5 (≈ 0.429 µM) | 64 (≈ 55 µM) | 0.25 (≈ 0.215 µM) | 0.06 (≈ 0.0515 µM) | 0.25 (≈ 0.215 µM) | 4 (≈ 3.44 µM) | 0.25 (≈ 0.215 µM) | 0.06 (≈ 0.0515 µM) |
| CC(C)CCCCC(=O)N[C@@H](CCN)C(=O)N[C@H](C(=O)N[C@H](CO)C(=O)N[C@H]1CCNC(=O)[C@H]([C@@H](C)O)NC(=O)[C@H](CCN)NC(=O)[C@H](CCN)NC(=O)[C@H]([C@@H](C)O)NC(=O)[C@@H](Cc2ccccc2)NC(=O)[C@H](CN)NC1=O)[C@@H](C)O [Compound 62, 6-methylheptanoyl-Dab-Thr-D-Ser-ring(4-10)[Dab-Dap-D-Phe-Thr-Dab-Dab-Thr]] ({Heptanoyl(6-Me)}-[Dab]T[dS][Dab][Dap][dF]T[Dab][Dab]T; lactam 4-C) | > 500 | 0.5 (≈ 0.435 µM) | 64 (≈ 55.6 µM) | 0.25 (≈ 0.217 µM) | 0.06 (≈ 0.0522 µM) | 0.25 (≈ 0.217 µM) | 4 (≈ 3.48 µM) | 0.25 (≈ 0.217 µM) | 0.06 (≈ 0.0522 µM) |  |  |  |  |  |  |  |  |
| CCCCCCCC(=O)N[C@@H](CCN)C(=O)N[C@H](C(=O)N[C@H](CO)C(=O)N[C@H]1CCNC(=O)[C@H]([C@@H](C)O)NC(=O)[C@H](CCN)NC(=O)[C@H](CCN)NC(=O)[C@H]([C@@H](C)O)NC(=O)[C@@H](Cc2ccccc2)NC(=O)[C@H](CN)NC1=O)[C@@H](C)O [Compound 63, Octanoyl-Dab-Thr-D-Ser-ring(4-10)[Dab-Dap-D-Phe-Thr-Dab-Dab-Thr]] (Octanoyl-[Dab]T[dS][Dab][Dap][dF]T[Dab][Dab]T; lactam 4-C) | > 500 | 0.5 (≈ 0.435 µM) | 64 (≈ 55.6 µM) | 0.25 (≈ 0.217 µM) | 0.125 (≈ 0.109 µM) | 0.25 (≈ 0.217 µM) | 4 (≈ 3.48 µM) | 0.25 (≈ 0.217 µM) | 0.125 (≈ 0.109 µM) |  |  |  |  |  |  |  |  |
| CCCCCCC(=O)N[C@@H](CCN)C(=O)N[C@H](C(=O)N[C@H](CO)C(=O)N[C@H]1CCNC(=O)[C@H]([C@@H](C)O)NC(=O)[C@H](CCN)NC(=O)[C@H](CCN)NC(=O)[C@H]([C@@H](C)O)NC(=O)[C@@H](Cc2ccccc2)NC(=O)[C@H](CN)NC1=O)[C@@H](C)O [Compound 64, Heptanoyl-Dab-Thr-D-Ser-ring(4-10)[Dab-Dap-D-Phe-Thr-Dab-Dab-Thr]] (Heptanoyl-[Dab]T[dS][Dab][Dap][dF]T[Dab][Dab]T; lactam 4-C) | > 500 | 0.5 (≈ 0.44 µM) | 64 (≈ 56.3 µM) | 0.25 (≈ 0.22 µM) | 0.25 (≈ 0.22 µM) | 0.25 (≈ 0.22 µM) | 8 (≈ 7.04 µM) | 0.25 (≈ 0.22 µM) | 0.25 (≈ 0.22 µM) |  |  |  |  |  |  |  |  |
| CCCCCCCCC(=O)N[C@@H](CCN)C(=O)N[C@H](C(=O)N[C@H](CO)C(=O)N[C@H]1CCNC(=O)[C@H]([C@@H](C)O)NC(=O)[C@H](CCN)NC(=O)[C@H](CCN)NC(=O)[C@H]([C@@H](C)O)NC(=O)[C@@H](Cc2ccccc2)NC(=O)[C@H](CN)NC1=O)[C@@H](C)O [Compound 65, Nonanoyl-Dab-Thr-D-Ser-ring(4-10)[Dab-Dap-D-Phe-Thr-Dab-Dab-Thr]] (Nonanoyl-[Dab]T[dS][Dab][Dap][dF]T[Dab][Dab]T; lactam 4-C) | 370 ± 31.8 (≈ 318 µM) | 0.5 (≈ 0.429 µM) | 64 (≈ 55 µM) | 0.25 (≈ 0.215 µM) | 0.25 (≈ 0.215 µM) | 0.25 (≈ 0.215 µM) | 8 (≈ 6.87 µM) | 0.25 (≈ 0.215 µM) | 0.25 (≈ 0.215 µM) |  |  |  |  |  |  |  |  |
| CC[C@H](C)CCCCC(=O)N[C@@H](CCN)C(=O)N[C@H](C(=O)N[C@H](CO)C(=O)N[C@H]1CCNC(=O)[C@H]([C@@H](C)O)NC(=O)[C@H](CCN)NC(=O)[C@H](CCN)NC(=O)[C@H]([C@@H](C)O)NC(=O)[C@@H](Cc2ccccc2)NC(=O)[C@H](CCCN)NC1=O)[C@@H](C)O [Compound 66, (S)-6-methyloctanoyl-Dab-Thr-D-Ser-ring(4-10)[Dab-Orn-D-Phe-Thr-Dab-Dab-Thr]] (X1-[Dab]T[dS][Dab][Orn][dF]T[Dab][Dab]T; lactam 4-C) | > 500 | 0.5 (≈ 0.419 µM) | 64 (≈ 53.7 µM) | 0.25 (≈ 0.21 µM) | 0.125 (≈ 0.105 µM) | 0.25 (≈ 0.21 µM) | 4 (≈ 3.35 µM) | 0.25 (≈ 0.21 µM) | 0.125 (≈ 0.105 µM) |  |  |  |  |  |  |  |  |
| CC(C)CCCCC(=O)N[C@@H](CCN)C(=O)N[C@H](C(=O)N[C@H](CO)C(=O)N[C@H]1CCNC(=O)[C@H]([C@@H](C)O)NC(=O)[C@H](CCN)NC(=O)[C@H](CCN)NC(=O)[C@H]([C@@H](C)O)NC(=O)[C@@H](Cc2ccccc2)NC(=O)[C@H](CCCN)NC1=O)[C@@H](C)O [Compound 67, 6-methylheptanoyl-Dab-Thr-D-Ser-ring(4-10)[Dab-Orn-D-Phe-Thr-Dab-Dab-Thr]] ({Heptanoyl(6-Me)}-[Dab]T[dS][Dab][Orn][dF]T[Dab][Dab]T; lactam 4-C) | > 500 | 0.5 (≈ 0.424 µM) | 64 (≈ 54.3 µM) | 0.25 (≈ 0.212 µM) | 0.25 (≈ 0.212 µM) | 0.25 (≈ 0.212 µM) | 4 (≈ 3.39 µM) | 0.25 (≈ 0.212 µM) | 0.25 (≈ 0.212 µM) |  |  |  |  |  |  |  |  |
| CCCCCCCC(=O)N[C@@H](CCN)C(=O)N[C@H](C(=O)N[C@H](CO)C(=O)N[C@H]1CCNC(=O)[C@H]([C@@H](C)O)NC(=O)[C@H](CCN)NC(=O)[C@H](CCN)NC(=O)[C@H]([C@@H](C)O)NC(=O)[C@@H](Cc2ccccc2)NC(=O)[C@H](CCCN)NC1=O)[C@@H](C)O [Compound 68, Octanoyl-Dab-Thr-D-Ser-ring(4-10)[Dab-Orn-D-Phe-Thr-Dab-Dab-Thr]] (Octanoyl-[Dab]T[dS][Dab][Orn][dF]T[Dab][Dab]T; lactam 4-C) | > 500 | 0.5 (≈ 0.424 µM) | 64 (≈ 54.3 µM) | 0.25 (≈ 0.212 µM) | 0.25 (≈ 0.212 µM) | 0.25 (≈ 0.212 µM) | 4 (≈ 3.39 µM) | 0.25 (≈ 0.212 µM) | 0.25 (≈ 0.212 µM) |  |  |  |  |  |  |  |  |
